Experimental data reported in patent US20090227619A1, “Harmine derivatives, intermediates used in their preparations, preparation processes and use therefo” (priority 2003, published 2009).
Read-outs that look alike come from different tables or passages of the source.

How the values were obtained:
Hela = assay: In vitro cytotoxicity, IC50 by MTT method, Hela; assay type: cell-based; details: Homo sapiens; Hela cell strain; read-out: IC50 Hela
Procedure, shortened: (§1)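 MTT viability, 48 h exposure: cells 10^5/ml in RPMI1640 + 10% FBS, 37 °C/5% CO2; MTT 4 h, DMSO solubilisation, A490.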

S180 sarcoma = details: S180 sarcoma; for Body weight of the animals, beginning, First time / Body weight of the animals, end, First time / Inhibition rate, First time / Weight of the tumor X ± SD, First time / Body weight of the animals, beginning, Second time / Body weight of the animals, end, Second time / Inhibition rate, Second time: ip × 10qd; for Inhibition rate (%) S180 sarcomata: comparison table 43, in vivo
Source text: There was one group of 8 to 10 mice C57BL/6 and Kunming mice for the anti-tumor tests and two groups of mice for negative control.
(3) Sources of tumors: Lewis lung cancer cells and S180 sarcoma in mice, which were sub-cultured and maintained by Pharmacological Center of Shanghai Pharmaceutical Industrial Research Institute.
All samples were weighed and added a small amount of Tween-80 to facilitate dissolution during the experiment, and then 0.5% CMC-Na solution was gradually added to achieve the desired concentration. The volume for experiment was 0.5 ml/20 g mouse.
The medicaments were intraperitoneally administered once a day continuously for 10 days.
For the negative control group, a vehicle of the same volume was intraperitoneally administered once a day continuously for 10 days. For the positive control group, CTX was administered in the dosage of 30 mg/kg once a day continuously for 7 days.
In vivo anti-tumor subcutaneous vaccination in the axilla was employed. Wildly grown tumor source was taken under sterile conditions to form a cell suspension of about 1×10^7 ml by homogenization method. For a corresponding mouse host, the suspension was injected in the axilla in an amount of 0.2 ml/mouse. The next day, the medicaments were administered according to the design of the tests. About three weeks later, all the groups of animals were executed. The tumors were taken from the animals and weighed. The inhibition rate of tumors was calculated according to the following formula:
T: average tumor weight of treated group; C: average tumor weight of negative control group.

PLA-801 = assay: In vitro cytotoxicity, IC50 by MTT method, PLA-801; assay type: cell-based; details: PLA-801 cell strain; read-out: IC50 PLA-801
Procedure, shortened: as §1

BGC-823 = assay: In vitro cytotoxicity, IC50 by MTT method, BGC-823; assay type: cell-based; details: Homo sapiens, BGC-823; BGC823 cell strain; read-out: IC50 BGC823
Procedure, shortened: as §1

HepG2 = assay: In vitro cytotoxicity, IC50 by MTT method, HepG2; assay type: cell-based, human; details: Homo sapiens; HepG2 cell strain; read-out: IC50 HepG2
Procedure, shortened: as §1

Lovo = assay: In vitro cytotoxicity, IC50 by MTT method, Lovo; assay type: cell-based; details: Homo sapiens; Lovo cell strain; read-out: IC50 Lovo
Procedure, shortened: as §1

Kunming mice = details: for Death rate: single i.p.
NIH3T3 = assay: In vitro cytotoxicity, IC50 by MTT method, NIH3T3; assay type: cell-based; details: Mus musculus; NIH3T3 cell strain; read-out: IC50 NIH3T3
Procedure, shortened: as §1

Bel-7402 = assay: In vitro cytotoxicity, IC50 by MTT method, Bel-7402; assay type: cell-based; details: Homo sapiens, Bel-7402; Bel7402 cell strain; read-out: IC50 Bel7402
Procedure, shortened: as §1

Lewis lung cancer = details: for Body weight of the animals, end, First time / Body weight of the animals, end, Second time / Body weight of the animals, beginning, First time / Inhibition rate, First time / Weight of the tumor X ± SD, First time / Body weight of the animals, beginning, Second time / Inhibition rate, Second time / Weight of the tumor X ± SD, Second time / Inhibition rate (%) Lewis cancer: Lewis lung cancer; for Body weight of the animals, end, First time / Body weight of the animals, end, Second time: ip × 10qd; for Inhibition rate (%) Lewis cancer: comparison table 43, in vivo;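 on all read-outs here: mice implanted subcutaneously in the axilla with Lewis lung tumor cells, treated starting the following day, killed roughly three weeks after implantation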
in vivo = details: both, mouse, ip
[1] = 50% male 50% female mice, 240 mg/kg
[2] = 50% male 50% female mice, 300 mg/kg
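Wherever Death rate is given: acute toxicity in Kunming mice grouped by sex, one intraperitoneal dose at five graded levels in Tween-80 plus 0.5% CMC-Na, deaths monitored over two weeks.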
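Wherever LD50 is given: acute toxicity in Kunming mice grouped by sex, one intraperitoneal dose at five graded levels in Tween-80 plus 0.5% CMC-Na, deaths monitored over two weeks.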
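Wherever MTD is given: acute toxicity in Kunming mice grouped by sex, one intraperitoneal dose at five graded levels in Tween-80 plus 0.5% CMC-Na, deaths monitored over two weeks.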

O=C(O)c1cc2c3ccccc3n(CCCc3ccccc3)c2cn1 [Compound 48, 9-phenylpropyl-β-carboline-3-carboxylic acid]
IC50 (Hela): 100 µM
Body weight of the animals, beginning, First time (S180 sarcoma; Dosage 50 (mg/ml)): 19.4 g
Body weight of the animals, end, First time (S180 sarcoma; Dosage 50 (mg/ml)): 24.8 g
Inhibition rate, First time (S180 sarcoma; Dosage 50 (mg/ml)): 19.48%
Weight of the tumor X ± SD, First time (S180 sarcoma; Dosage 50 (mg/ml)): 2.15 ± 0.39 g
Body weight of the animals, beginning, Second time (S180 sarcoma; Dosage 50 (mg/ml)): 18.6 g
Body weight of the animals, end, Second time (S180 sarcoma; Dosage 50 (mg/ml)): 25.8 g
Inhibition rate, Second time (S180 sarcoma; Dosage 50 (mg/ml)): 21.85%
Weight of the tumor X ± SD, Second time (S180 sarcoma; Dosage 50, ip × 10qd): 2.11 ± 0.25 g
Body weight of the animals, beginning, First time (S180 sarcoma; Dosage 100 (mg/ml)): 19.4 g
Body weight of the animals, end, First time (S180 sarcoma; Dosage 100 (mg/ml)): 24.8 g
Inhibition rate, First time (S180 sarcoma; Dosage 100 (mg/ml)): 31.09%
Weight of the tumor X ± SD, First time (S180 sarcoma; Dosage 100 (mg/ml)): 1.84 ± 0.11 g
Body weight of the animals, beginning, Second time (S180 sarcoma; Dosage 100 (mg/ml)): 18.5 g
Body weight of the animals, end, Second time (S180 sarcoma; Dosage 100 (mg/ml)): 26.0 g
Inhibition rate, Second time (S180 sarcoma; Dosage 100 (mg/ml)): 32.22%
Weight of the tumor X ± SD, Second time (S180 sarcoma; Dosage 100, ip × 10qd): 1.83 ± 0.16 g
Inhibition rate (%) S180 sarcomata (S180 sarcoma): 32.22%
IC50 (PLA-801): 260 µM
IC50 (BGC-823): 30 µM
IC50 (HepG2): 30 µM
IC50 (Lovo): 10 µM
Death rate (Kunming mice; [1]): 60
Death rate (Kunming mice; [2]): 100
Death rate (Kunming mice; female mice, 240 mg/kg): 60
Death rate (Kunming mice; female mice, 300 mg/kg): 100
Death rate (Kunming mice; male mice, 240 mg/kg): 60
Death rate (Kunming mice; male mice, 300 mg/kg): 100
LD50 (Kunming mice; mouse, in vivo, ip): 193 to 249 mg/kg
IC50 (NIH3T3): 30 µM
IC50 (Bel-7402): 50 µM
Body weight of the animals, end, First time (Lewis lung cancer; Dosage 50 (mg/ml)): 25.3 g
Body weight of the animals, end, Second time (Lewis lung cancer; Dosage 50 (mg/ml)): 25.0 g
Body weight of the animals, beginning, First time (Lewis lung cancer; Dosage 50, ip × 10qd): 20.1 g
Inhibition rate, First time (Lewis lung cancer; Dosage 50, ip × 10qd): 25.10%
Weight of the tumor X ± SD, First time (Lewis lung cancer; Dosage 50, ip × 10qd): 1.82 ± 0.10 g
Body weight of the animals, beginning, Second time (Lewis lung cancer; Dosage 50, ip × 10qd): 19.0 g
Inhibition rate, Second time (Lewis lung cancer; Dosage 50, ip × 10qd): 28.67%
Weight of the tumor X ± SD, Second time (Lewis lung cancer; Dosage 50, ip × 10qd): 2.09 ± 0.19 g
Body weight of the animals, end, First time (Lewis lung cancer; Dosage 100 (mg/ml)): 24.8 g
Body weight of the animals, end, Second time (Lewis lung cancer; Dosage 100 (mg/ml)): 25.2 g
Body weight of the animals, beginning, First time (Lewis lung cancer; Dosage 100, ip × 10qd): 19.8 g
Inhibition rate, First time (Lewis lung cancer; Dosage 100, ip × 10qd): 34.98%
Weight of the tumor X ± SD, First time (Lewis lung cancer; Dosage 100, ip × 10qd): 1.58 ± 0.08 g
Body weight of the animals, beginning, Second time (Lewis lung cancer; Dosage 100, ip × 10qd): 19.3 g
Inhibition rate, Second time (Lewis lung cancer; Dosage 100, ip × 10qd): 39.59%
Weight of the tumor X ± SD, Second time (Lewis lung cancer; Dosage 100, ip × 10qd): 1.77 ± 0.15 g
Inhibition rate (%) Lewis cancer (Lewis lung cancer): 39.59%
LD50 at 2 weeks (in vivo): 219 mg/kg

CCOC(=O)Nc1cc2c3ccccc3n(Cc3ccccc3)c2cn1 [Compound 55, 3-[(ethoxycarbonyl)amino]-9-benzyl-β-carboline]
IC50 (Hela): > 3000 µM
Body weight of the animals, beginning, First time (S180 sarcoma; Dosage 50 (mg/ml)): 19.8 g
Body weight of the animals, end, First time (S180 sarcoma; Dosage 50 (mg/ml)): 27.0 g
Inhibition rate, First time (S180 sarcoma; Dosage 50 (mg/ml)): 23.51%
Weight of the tumor X ± SD, First time (S180 sarcoma; Dosage 50 (mg/ml)): 2.18 ± 0.23 g
Body weight of the animals, beginning, Second time (S180 sarcoma; Dosage 50 (mg/ml)): 20.9 g
Body weight of the animals, end, Second time (S180 sarcoma; Dosage 50 (mg/ml)): 24.8 g
Inhibition rate, Second time (S180 sarcoma; Dosage 50 (mg/ml)): 20.00%
Weight of the tumor X ± SD, Second time (S180 sarcoma; Dosage 50, ip × 10qd): 2.28 ± 0.18 g
Body weight of the animals, beginning, First time (S180 sarcoma; Dosage 100 (mg/ml)): 19.4 g
Body weight of the animals, end, First time (S180 sarcoma; Dosage 100 (mg/ml)): 26.7 g
Inhibition rate, First time (S180 sarcoma; Dosage 100 (mg/ml)): 29.12%
Weight of the tumor X ± SD, First time (S180 sarcoma; Dosage 100 (mg/ml)): 2.02 ± 0.22 g
Body weight of the animals, beginning, Second time (S180 sarcoma; Dosage 100 (mg/ml)): 20.3 g
Body weight of the animals, end, Second time (S180 sarcoma; Dosage 100 (mg/ml)): 24.9 g
Inhibition rate, Second time (S180 sarcoma; Dosage 100 (mg/ml)): 28.07%
Weight of the tumor X ± SD, Second time (S180 sarcoma; Dosage 100, ip × 10qd): 2.05 ± 0.17 g
Inhibition rate (%) S180 sarcomata (S180 sarcoma): 29.12%
IC50 (PLA-801): 520 µM
IC50 (BGC-823): > 3000 µM
IC50 (HepG2): > 3000 µM
IC50 (Lovo): 2130 µM
Death rate (Kunming mice; [1]): 0
Death rate (Kunming mice; [2]): 50
Death rate (Kunming mice; female mice, 240 mg/kg): 0
Death rate (Kunming mice; female mice, 300 mg/kg): 60
Death rate (Kunming mice; male mice, 240 mg/kg): 0
Death rate (Kunming mice; male mice, 300 mg/kg): 40
IC50 (NIH3T3): 1790 µM
IC50 (Bel-7402): 2440 µM
Anti-tumor activity compared with harmine (compound 1) (Lewis lung cancer; Lewis lung cancer in mice, among 22 compounds tested): a little worse than or equivalent to that of harmines
Body weight of the animals, end, First time (Lewis lung cancer; Dosage 50 (mg/ml)): 23.8 g
Body weight of the animals, end, Second time (Lewis lung cancer; Dosage 50 (mg/ml)): 24.5 g
Body weight of the animals, beginning, First time (Lewis lung cancer; Dosage 50, ip × 10qd): 18.7 g
Inhibition rate, First time (Lewis lung cancer; Dosage 50, ip × 10qd): 21.91%
Weight of the tumor X ± SD, First time (Lewis lung cancer; Dosage 50, ip × 10qd): 1.96 ± 0.12 g
Body weight of the animals, beginning, Second time (Lewis lung cancer; Dosage 50, ip × 10qd): 19.6 g
Inhibition rate, Second time (Lewis lung cancer; Dosage 50, ip × 10qd): 24.58%
Weight of the tumor X ± SD, Second time (Lewis lung cancer; Dosage 50, ip × 10qd): 1.78 ± 0.19 g
Body weight of the animals, end, First time (Lewis lung cancer; Dosage 100 (mg/ml)): 23.5 g
Body weight of the animals, end, Second time (Lewis lung cancer; Dosage 100 (mg/ml)): 23.9 g
Body weight of the animals, beginning, First time (Lewis lung cancer; Dosage 100, ip × 10qd): 19.1 g
Inhibition rate, First time (Lewis lung cancer; Dosage 100, ip × 10qd): 29.88%
Weight of the tumor X ± SD, First time (Lewis lung cancer; Dosage 100, ip × 10qd): 1.76 ± 0.10 g
Body weight of the animals, beginning, Second time (Lewis lung cancer; Dosage 100, ip × 10qd): 19.7 g
Inhibition rate, Second time (Lewis lung cancer; Dosage 100, ip × 10qd): 30.93%
Weight of the tumor X ± SD, Second time (Lewis lung cancer; Dosage 100, ip × 10qd): 1.63 ± 0.18 g
Inhibition rate (%) Lewis cancer (Lewis lung cancer): 30.93%
MTD at 2 weeks (in vivo): 240 mg/kg
